# Experimental data published in the NIST ThermoML archive (doi:10.1021/je200195q).
# ± gives the expanded uncertainty stated by the source.
# Test: activity coefficient (dimensionless); of the first substance listed, at infinite dilution; xn = mol fraction of the nth substance listed
# Details: 101 kPa, Liquid, Chromatography, x1 = 0
smiles,measurement,setting,value
C#CCCCC [1-hexyne] + CCCCn1cc[n+](C)c1.O=S(=O)([N-]S(=O)(=O)C(F)(F)C(F)(F)F)C(F)(F)C(F)(F)F,activity coefficient,322.55 K,2.86 ± 0.2
same,activity coefficient,342.75 K,2.73 ± 0.19
same,activity coefficient,362.65 K,2.64 ± 0.18
CCO [ethanol] + CCCCn1cc[n+](C)c1.O=S(=O)([N-]S(=O)(=O)C(F)(F)C(F)(F)F)C(F)(F)C(F)(F)F,activity coefficient,322.55 K,1.65 ± 0.11
same,activity coefficient,342.75 K,1.37 ± 0.089
same,activity coefficient,362.65 K,1.18 ± 0.075
C[N+](=O)[O-] [nitromethane] + CCCCn1cc[n+](C)c1.O=S(=O)([N-]S(=O)(=O)C(F)(F)C(F)(F)F)C(F)(F)C(F)(F)F,activity coefficient,322.55 K,0.625 ± 0.043
same,activity coefficient,342.75 K,0.682 ± 0.046
same,activity coefficient,362.65 K,0.699 ± 0.047
CC(C)OC(C)C [diisopropyl ether] + CCn1cc[n+](C)c1.CS(=O)(=O)[O-],activity coefficient,312.55 K,84.5 ± 5.8
same,activity coefficient,322.45 K,74.2 ± 5.1
same,activity coefficient,332.45 K,67.7 ± 4.6
c1ccsc1 [thiophene] + CCn1cc[n+](C)c1.CS(=O)(=O)[O-],activity coefficient,312.55 K,1.87 ± 0.13
same,activity coefficient,322.45 K,1.91 ± 0.13
same,activity coefficient,332.45 K,1.95 ± 0.13
CO [methanol] + CCn1cc[n+](C)c1.CS(=O)(=O)[O-],activity coefficient,312.55 K,0.249 ± 0.03
same,activity coefficient,322.45 K,0.254 ± 0.03
same,activity coefficient,332.45 K,0.264 ± 0.03
CCCCCCCCC [nonane] + CCCCCC[n+]1ccn(C)c1.FC(F)(F)C(F)(F)[P-](F)(F)(F)(C(F)(F)C(F)(F)F)C(F)(F)C(F)(F)F,activity coefficient,312.8 K,17.7 ± 1.2
same,activity coefficient,332.85 K,15.5 ± 1.1
same,activity coefficient,354.65 K,12.4 ± 0.85
"Cc1ccc(C)cc1 [1,4-dimethylbenzene] + CCCCn1cc[n+](C)c1.O=S(=O)([N-]S(=O)(=O)C(F)(F)C(F)(F)F)C(F)(F)C(F)(F)F",activity coefficient,322.55 K,2.05 ± 0.14
same,activity coefficient,342.75 K,2.03 ± 0.14
same,activity coefficient,362.65 K,2 ± 0.14
C1CCCCC1 [cyclohexane] + CCCCCC[n+]1ccn(C)c1.FC(F)(F)C(F)(F)[P-](F)(F)(F)(C(F)(F)C(F)(F)F)C(F)(F)C(F)(F)F,activity coefficient,312.8 K,4.78 ± 0.33
same,activity coefficient,332.85 K,4.17 ± 0.28
same,activity coefficient,354.65 K,3.62 ± 0.25
CCN(CC)CC [triethylamine] + CCCCn1cc[n+](C)c1.O=S(=O)([N-]S(=O)(=O)C(F)(F)C(F)(F)F)C(F)(F)C(F)(F)F,activity coefficient,322.55 K,2.73 ± 0.19
same,activity coefficient,342.75 K,3.61 ± 0.25
same,activity coefficient,362.65 K,3.27 ± 0.22
ClC(Cl)Cl [trichloromethane] + CCn1cc[n+](C)c1.CS(=O)(=O)[O-],activity coefficient,312.55 K,0.563 ± 0.04
same,activity coefficient,322.45 K,0.479 ± 0.037
same,activity coefficient,332.45 K,1.42 ± 0.093
"C1COCCO1 [1,4-dioxane] + CCCCCC[n+]1ccn(C)c1.FC(F)(F)C(F)(F)[P-](F)(F)(F)(C(F)(F)C(F)(F)F)C(F)(F)C(F)(F)F",activity coefficient,312.8 K,0.273 ± 0.03
same,activity coefficient,332.85 K,0.327 ± 0.032
same,activity coefficient,354.65 K,0.339 ± 0.032
CCC(C)CC [3-methylpentane] + CCCCn1cc[n+](C)c1.O=S(=O)([N-]S(=O)(=O)C(F)(F)C(F)(F)F)C(F)(F)C(F)(F)F,activity coefficient,322.55 K,8.23 ± 0.56
same,activity coefficient,342.75 K,7.79 ± 0.53
same,activity coefficient,362.65 K,7.62 ± 0.52
ClC(Cl)(Cl)Cl [tetrachloromethane] + CCCCCCCCCCn1cc[n+](CCCCCCCCCC)c1C.O=S(=O)([N-]S(=O)(=O)C(F)(F)F)C(F)(F)F,activity coefficient,323.1 K,0.776 ± 0.051
same,activity coefficient,333.15 K,0.777 ± 0.051
same,activity coefficient,343.15 K,0.777 ± 0.051
CCC(C)CC [3-methylpentane] + CCCCCCCCCCn1cc[n+](CCCCCCCCCC)c1C.O=S(=O)([N-]S(=O)(=O)C(F)(F)F)C(F)(F)F,activity coefficient,323.1 K,1.71 ± 0.11
same,activity coefficient,333.15 K,1.68 ± 0.11
same,activity coefficient,343.15 K,1.63 ± 0.11
"C1COCCO1 [1,4-dioxane] + CCCCn1cc[n+](C)c1.O=S(=O)([N-]S(=O)(=O)C(F)(F)C(F)(F)F)C(F)(F)C(F)(F)F",activity coefficient,322.55 K,0.429 ± 0.035
same,activity coefficient,342.75 K,0.607 ± 0.042
same,activity coefficient,362.65 K,0.576 ± 0.041
